Measurements: patent US9217743B2, “Screening method utilizing thalidomide-targeting factor” (Tokyo Institute of Technology, priority 2009, dated 2015)
Entries after “also recorded” stand apart in the source; their conditions may differ.

Experiments:
[1] = target: T1, CRBN-FLAG (Homo sapiens, UniProt Q96SW2); test: In vitro binding assay of purified recombinant protein with thalidomide-immobilized beads
T1 construct: made in house; host or cells: Sf9 insect cells (Bac-to-bac baculovirus)
Excerpt: (§1) Recombinant CRBN-FLAG and DDB1-V5-His proteins were expressed in the insect Sf9 cells by using the Bac-to-bac baculovirus expression system (Invitrogen) and purified using anti-FLAG M2 agarose beads (Sigma) and Ni-NTA agarose beads (Qiagen), respectively. Purified CRBN-FLAG and/or DDB1-V5-His were mixed with thalidomide-immobilized beads, and the bound proteins were eluted with an SDS sample buffer. For analysis of CRBN-deletion mutant, GST-fused CRBN and its mutants were expressed in E. coli BL21 and purified using glutathione Sepharose (GE Healthcare). CRBN mutants were overexpressed in 293T cells by transfection using Lipofectamine 2000 (Invitrogen). Subsequent binding assays were carried out as described above.

[2] = target: T2, DDB1-V5-His (Homo sapiens, UniProt Q16531); test: as above
T2 construct: made in house; host or cells: Sf9 insect cells (Bac-to-bac baculovirus)
Excerpt: as §1

[3] = target: T3, CRBN W386A (Homo sapiens, UniProt Q96SW2, W386A); test: Binding of CRBN point mutant from 293T extracts to thalidomide-immobilized beads
T3 construct: expressed in transfected cells; host or cells: 293T
Excerpt: (§2) First, thalidomide-binding region was investigated by using the N-terminal and C-terminal deletion mutants. […] The present inventors investigated whether this CRBN YW/AA functionally active in the cells. The subcellular localization of this mutant was indistinguishable from that of wild-type CRBN.
as §1

[4] = target: T4, CRBN Y384A (Homo sapiens, UniProt Q96SW2, Y384A); test: as above
T4 construct: expressed in transfected cells; host or cells: 293T
Excerpt: as §2, §1

[5] = target: T5, zCrbn YW/AA (Danio rerio, UniProt Q68EH9, W376A/Y374A); test: Binding of FLAG-zCrbn YW/AA from 293T lysate to thalidomide beads; design: species or system zebrafish; conditions: FLAG-zCrbn YW/AA in 293T lysate
T5 construct: expressed in transfected cells; host or cells: 293T
T5 sequence (Q68EH9 1-431 Y374A/W376A): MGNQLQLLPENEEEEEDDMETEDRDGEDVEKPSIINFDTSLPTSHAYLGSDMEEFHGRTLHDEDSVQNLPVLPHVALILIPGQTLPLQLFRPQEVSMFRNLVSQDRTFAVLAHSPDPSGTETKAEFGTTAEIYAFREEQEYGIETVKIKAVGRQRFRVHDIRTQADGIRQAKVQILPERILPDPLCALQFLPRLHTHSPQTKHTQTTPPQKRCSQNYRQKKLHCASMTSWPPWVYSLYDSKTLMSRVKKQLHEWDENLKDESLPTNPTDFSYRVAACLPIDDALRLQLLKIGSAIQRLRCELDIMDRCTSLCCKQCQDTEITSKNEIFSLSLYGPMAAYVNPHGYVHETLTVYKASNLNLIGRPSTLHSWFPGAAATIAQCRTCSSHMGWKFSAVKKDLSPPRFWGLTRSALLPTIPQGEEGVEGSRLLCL
Protocol: FIG. 14 relates to biochemical analysis results of zCrbn. […] Bound proteins were eluted by thalidomide, and eluate were analyzed by western blotting. zCrbn bound to thalidomide. (B) Lysate from 293T cells overexpressing FH-zCrbn was immunoprecipitated with anti-FLAG antibody, and DDB1 was detected by western blotting. […] (C) Lysate from FLAG-zCrbn (wild type) or FLAG-zCrbn YW/AA overexpressed in 293T cells was mixed with thalidomide beads. For quantification, various amounts of input and eluate fraction were analyzed by western blotting.
If so, its teratogenicity should be alleviated by expression of functionally active but thalidomide-binding-defective zCrbn. To examine this idea, the present inventors prepared mutants in which Y374 and W376 are substituted with alanine (corresponding to YW/AA in humans, namely Y384A/W386A). The zCrbn YW/AA has extremely low thalidomide-binding activity. In the absence of thalidomide, Overexpression of wild-type zCrbn or zCrbn YW/AA had no discernible effect on fin and otic vesicle development. […] Also thalidomide treatment of embryos overexpressing wild-type zCrbn reduced the size of otic vesicles to approximately 66% of the control size. […] Thalidomide-induced fin degeneration was also rescued by overexpression of zCrbn YW/AA.

[6] = target: T6, CRBN YW/AA (Homo sapiens, UniProt Q96SW2, W386A/Y384A); test: Autoubiquitination in live cells, 293T cells stably expressing FH-CRBN YW/AA; type: cell-based; conditions: thalidomide 10, 30 and 100 μM, with MG132
T6 construct: expressed in transfected cells; host or cells: 293T stably expressing FH-CRBN YW/AA
Protocol: The present inventors examined whether thalidomide would inhibit ubiquitination of the CRBN-containing E3 complex. 293T cells stably expressing FH-CRBN or FH-CRBN YW/AA were treated with MG132 and thalidomide (10, 30, and 100 μM) at similar concentration relative to the therapeutic doses used in human.
The assays were performed as described (Cited Literature 38). 293T cells stably expressing FH-CRBN or its mutant were treated with 10 μM MG132 or DMSO (vehicle) for three hours. The cells lysate were prepared using RIPA buffer containing 25 μM MG132 and 10 mM N-ethylmaleimide. FH-CRBN was immunoprecipitated and analyzed as described above. Various concentrations of thalidomide were added to cells one hour prior to MG132 treatment.

[7] = target: T7, DDB1 and CRBN (Homo sapiens, UniProt Q96SW2); test: Affinity purification from HeLa cell extracts with thalidomide-immobilized beads, competition by free thalidomide; type: binding; conditions: 0.3 mM free thalidomide added to HeLa extracts before the beads
T7 construct: endogenous in cells; host or cells: HeLa
Protocol: To purify thalidomide-binding proteins, the present inventors performed affinity purification using FG beads, which are magnetic particles (Cited Literature 9). FR259625, a thalidomide derivative in which a carboxyl group is added was covalently immobilized on the FG beads (FIG. 6), and mixed and incubated with human HeLa cell extracts. […] The 127 and 55 kDa proteins were analyzed by mass spectrometry and identified as DDB1 and CRBN, respectively (Table 1). Identities of these proteins were also confirmed by Western blotting (immunoblotting) (FIG. 1A), and further, these proteins were isolated similarly as thalidomide binding protein from extracts of various cell types (FIG. 7). To determine whether this interaction with thalidomide is direct, the present inventors purified recombinant proteins. CRBN-FLAG, but not DDB1-V5-His, bound to thalidomide-immobilized beads (FIG. 1B).

[8] = target: CRBN (Homo sapiens, UniProt Q96SW2); test: Elution of CRBN from thalidomide-immobilized beads by test compound, Western blotting
[9] = system: DDB1; test: Elution of DDB1 from thalidomide-immobilized beads by test compound, Western blotting; conditions: Example 6; 293T extracts; elution with 1 mM compound

binding of thalidomide to recombinant CRBN-FLAG [1]: directly binds
binding of thalidomide to recombinant DDB1-V5-His [2]: indirectly via CRBN
thalidomide binding of CRBN W386A [3]: defective
thalidomide binding of CRBN Y384A [4]: defective
autoubiquitination of CRBN YW/AA [6]: not affected
yield of DDB1 and CRBN on the beads [7]: reduced significantly
CRBN eluted from thalidomide-immobilized beads by the compound ([8]; 293T cell extracts, buffer containing 0.1 to 1 mM compound, one hour, Western blotting): eluted
CRBN in the eluate fraction ([8]; Example 6, 293T extracts, elution with 1 mM compound): detected
Compound: O=C1CCC(N2C(=O)c3ccccc3C2=O)C(=O)N1 (stereo not shown) [thalidomide]
thalidomide-binding activity of zCrbn YW/AA [5]: extremely low; also recorded: obviously weak
DDB1 in the eluate fraction [9]: detected
